From US20240384268A1, “Oligonucleotides” (Hudson Institute of Medical Research, priority 2021, published 2024)
In the oligonucleotide strings, read from the 5' end, every base follows the letter of its sugar. An asterisk marks phosphorothioate; unmarked linkages are phosphodiester. Other units and linkages are bracketed, terminal groups are in braces. A string of capitals states the bases alone. d = 2'-deoxy (DNA); m = 2'-O-methyl

Legend:
cGAS = cGAS (Homo sapiens, UniProt Q8N884); experiment: ISD70-driven IP-10 production in MG-63 cells; format: cell-based; parameters: endogenous in cells; conditions: indicated concentrations up to 500 nM, ~30 min, ISD overnight (FIG. 24)
TLR8 = target: T1, TLR8 (Homo sapiens, UniProt Q9NR97); experiment: HEK-TLR8 NF-κB-luciferase reporter, R848 or Motolimod stimulation (potentiation or inhibition); format: cell-based; parameters: expressed in transfected cells; host or cells: 293XLhTLR8 (HEK293); conditions: for TLR8 100 nM (averaged NF-κB-Luciferase level relative to R848 condition, fold increase): ASO 100 nM; for TLR8 100 nM (averaged NF-κB-Luciferase level relative to R848 condition, fold increase) / TLR8 500 nM (averaged NF-κB-Luciferase level relative to R848 condition, fold increase): relative to R848 only; for TLR8 500 nM (averaged NF-κB-Luciferase level relative to R848 condition, fold increase): ASO 500 nM; for TLR8-500 nM: averaged NF-κB-Luciferase relative to R848: HEK-TLR8, 500 nM ASO, fold increase relative to R848 without ASO (Alharbi et al., 2020)
T1 sequence (Q9NR97 27-1041): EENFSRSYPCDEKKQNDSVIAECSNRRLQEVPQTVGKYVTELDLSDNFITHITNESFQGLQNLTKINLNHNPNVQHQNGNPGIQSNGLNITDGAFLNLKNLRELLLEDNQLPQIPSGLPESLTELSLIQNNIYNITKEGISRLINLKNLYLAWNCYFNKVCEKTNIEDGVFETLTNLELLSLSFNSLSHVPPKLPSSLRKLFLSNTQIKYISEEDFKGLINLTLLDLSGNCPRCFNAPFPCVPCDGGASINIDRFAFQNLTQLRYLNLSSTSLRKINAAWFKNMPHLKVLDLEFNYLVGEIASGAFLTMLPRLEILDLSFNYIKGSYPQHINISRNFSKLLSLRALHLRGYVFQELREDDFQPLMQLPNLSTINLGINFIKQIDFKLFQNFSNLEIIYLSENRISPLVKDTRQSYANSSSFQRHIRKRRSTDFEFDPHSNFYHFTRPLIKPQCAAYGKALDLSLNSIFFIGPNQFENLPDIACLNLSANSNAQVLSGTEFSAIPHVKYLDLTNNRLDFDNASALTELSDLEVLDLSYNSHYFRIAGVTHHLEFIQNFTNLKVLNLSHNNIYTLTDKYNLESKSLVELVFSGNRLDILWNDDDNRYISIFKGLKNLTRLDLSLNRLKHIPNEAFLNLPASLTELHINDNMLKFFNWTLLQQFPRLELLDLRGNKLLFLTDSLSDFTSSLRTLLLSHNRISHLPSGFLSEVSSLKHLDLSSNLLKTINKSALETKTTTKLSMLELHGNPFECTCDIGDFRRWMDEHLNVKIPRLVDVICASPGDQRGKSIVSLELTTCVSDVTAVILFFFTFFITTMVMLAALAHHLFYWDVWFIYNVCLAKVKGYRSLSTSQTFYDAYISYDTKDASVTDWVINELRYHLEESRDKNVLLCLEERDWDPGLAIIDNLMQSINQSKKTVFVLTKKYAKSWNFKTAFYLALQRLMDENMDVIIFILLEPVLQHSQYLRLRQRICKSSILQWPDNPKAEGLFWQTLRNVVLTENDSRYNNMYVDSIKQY

cGAS, sequence (Q8N884 whole entry): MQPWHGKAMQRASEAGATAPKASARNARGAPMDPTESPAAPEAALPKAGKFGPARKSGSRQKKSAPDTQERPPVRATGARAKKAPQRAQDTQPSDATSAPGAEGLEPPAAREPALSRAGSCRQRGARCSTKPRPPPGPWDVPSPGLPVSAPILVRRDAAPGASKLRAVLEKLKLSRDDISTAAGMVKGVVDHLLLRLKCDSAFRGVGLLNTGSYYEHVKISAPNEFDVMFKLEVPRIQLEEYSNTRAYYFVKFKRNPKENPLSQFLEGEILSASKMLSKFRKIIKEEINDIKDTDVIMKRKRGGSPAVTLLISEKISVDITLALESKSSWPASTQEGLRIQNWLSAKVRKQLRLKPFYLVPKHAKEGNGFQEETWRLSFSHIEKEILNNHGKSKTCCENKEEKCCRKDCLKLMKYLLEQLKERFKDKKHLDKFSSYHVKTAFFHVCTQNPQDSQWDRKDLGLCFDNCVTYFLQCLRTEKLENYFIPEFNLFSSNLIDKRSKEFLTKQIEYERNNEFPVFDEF

| Substance | IP-10 after ISD in MG-63, MOE and LNA ASOs (in words) (cGAS) | TLR8 100 nM (averaged NF-κB-Luciferase level relative to R848 condition, fold increase) (TLR8) | TLR8 500 nM (averaged NF-κB-Luciferase level relative to R848 condition, fold increase) (TLR8) | TLR8-500 nM: averaged NF-κB-Luciferase relative to R848 (TLR8) [fold] |
| --- | --- | --- | --- | --- |
| CGCTTTTCTGTCTGGT (antisense; LNA-modified, pattern not given here) [CTNN2B-311 LNA KL] | did not inhibit IP-10 production | 0.920 | 2.896 | – |
| AGTGTTGAGATACTCG (antisense; LNA-modified, pattern not given here) [EGFR-3652 LNA KL] | – | 0.427 | 0.599 | – |
| mA*mG*mU*mC*mU*C*C*A*T*G*T*C*C*C*A*mG*mG*mC*mC*mU (mA*mG*mU*mC*mU*dC*dC*dA*dT*dG*dT*dC*dC*dC*dA*mG*mG*mC*mC*mU; antisense) [[CDKN2B-AS1]2232] | – | – | – | 2.28 |
| CTGCAGCTTCCTTGTC (antisense; LNA-modified, pattern not given here) [CTNN2B-2136 LNA V1] | – | 0.478 | 0.936 | – |
| ACCACGTCTGCTCTAA (antisense; LNA-modified, pattern not given here) [CAMSAP1-1635 LNA KL] | – | 0.933 | 4.259 | – |
| TGGTCCACAACCCCTT (antisense; LNA-modified, pattern not given here) [MB21D1-697 LNA V1] | – | 0.559 | 1.454 | – |
| ATCTGGCAGCCCATCA (antisense; LNA-modified, pattern not given here) [CTNN2B-2516 LNA V1] | – | 0.808 | 2.628 | – |
| GTCAAGGGCATATCCT (antisense; LNA-modified, pattern not given here) [HPRT LNA-732 KL] | – | 0.543 | 2.301 | – |
| mC*mA*mG*mU*mC*T*C*C*A*T*G*T*C*C*C*mA*mG*mG*mC*mC (mC*mA*mG*mU*mC*dT*dC*dC*dA*dT*dG*dT*dC*dC*dC*mA*mG*mG*mC*mC; antisense) [[CDKN2B-AS1]2233] | – | – | – | 3.81 |
| mA*mU*mU*mU*mC*C*A*C*A*T*G*C*C*C*A*mG*mU*mG*mU*mU (AUUUCCACATGCCCAGUGUU; antisense; sugars from the 5' end m5 d10 m5, all phosphorothioate, methylation of C not given here) [[CDKN2B-AS1]626] | – | – | – | 4.09 |
| TCTTCATCGGCCCTGC (antisense; LNA-modified, pattern not given here) [CAMSAP1-2112 LNA V1] | – | 0.595 | 1.393 | – |
| AGGTCTTGGCTTCGTG (antisense; LNA-modified, pattern not given here) [MB21D1-524 LNA V1] | – | 0.596 | 1.953 | – |
| mA*mA*mG*mC*mA*G*T*C*T*C*C*A*T*G*T*mC*mC*mC*mA*mG (mA*mA*mG*mC*mA*dG*dT*dC*dT*dC*dC*dA*dT*dG*dT*mC*mC*mC*mA*mG; antisense) [[CDKN2B-AS1]2236] | – | – | – | 2.62 |
| GGAGGTCTTGGCTTCG (antisense; LNA-modified, pattern not given here) [MB21D1-526 LNA V1] | – | 0.575 | 0.882 | – |
| TCCATACCCAAGGCAT (antisense; LNA-modified, pattern not given here) [CTNN2B-2446 LNA V1] | – | 0.595 | 1.334 | – |
| AATCCAACAAAGTCTG (antisense; LNA-modified, pattern not given here) [HPRT LNA-692 KL] | – | 0.591 | 1.900 | – |
| TGTCTGGAAGCTTCCT (antisense; LNA-modified, pattern not given here) [CTNN2B-808 LNA V1] | – | 0.600 | 0.871 | – |
